This passage reports IC50 results from patent US8084481B2, “Substituted arylimidazolone and triazolone as inhibitors of vasopressin receptors” (Bayer Pharma Aktiengesellschaft, priority 2006, dated 2011).

One assay concerns the target T1, human V1a receptor (Homo sapiens, UniProt P37288).
T1 construct: expressed in transfected cells; host or cells: CHO K1 (ATCC), constitutively expressing a modified aequorin
As to the kind of experiment: Cellular in vitro test for determination of the vasopressin receptor activity (aequorin luminescence, CHO cells), human V1a. Format: cell-based. To be noted: cell line transfected with the human V1a receptor, antagonism of [Arg8]-vasopressin, read-out: IC50 hV1a. The text has this: (§1) B-1. Cellular In Vitro Test for Determination of the Vasopressin Receptor Activity
(§2) The identification of agonists and antagonists of the V1a- and V2-vasopressin receptors in man and the rat and the quantification of the activity of the compounds according to the invention are effected by means of recombinant cell lines. These cells are originally derived from the ovarian epithelial cells of the hamster (Chinese Hamster Ovary, CHO K1, ATCC: American Type Culture Collection, Manassas, Va. 20108, USA). The test cell lines constitutively express a modified form of the calcium-sensitive photoprotein aequorin, which after reconstitution with the cofactor coelenterazine emits light on an increase in the free calcium concentrations [Rizzuto R, Simpson A W, Brini M, Pozzan T, Nature 358, 325-327 (1992)]. In addition, the cells are stably transfected with human or rat V1a- or V2 receptors. In the case of the Gs-coupled V2 receptors, the cells are stably transfected with a further gene which codes for the promiscuous Gα16-Protein [Amatruda T T, Steele D A, Slepak V Z, Simon M I, Proceedings of the National Academy of Science USA 88, 5587-5591 (1991)]. The resulting vasopressin receptor test cells react to stimulation of the recombinantly expressed vasopressin receptors with an intracellular release of calcium ions, which can be quantified by the resulting aequorin luminescence with a suitable luminometer [Milligan G, Marshall F, Rees S, Trends in Pharmacological Sciences 17, 235-237 (1996)].
(§3) On the day before the text, the cells are plated out in culture medium (DMEM, 10% FCS, 2 mM glutamine, 10 mM HEPES) in 384-well microtitre plates and kept in a cell incubator (96% atmospheric humidity, 5% v/v CO2, 37° C.). On the test day, the culture medium is replaced by a Tyrode solution (140 mM NaCl, 5 mM KCl, 1 mM MgCl2, 2 mM CaCl2, 20 mM glucose, 20 mM HEPES) which in addition contains the cofactor coelenterazine (50 μM), and the microtitre plate is then incubated for a further 3-4 hours. The test substances in various concentrations are placed beforehand in the wells of the microtitre plate for 10 to 20 minutes, before the agonist [Arg^8]-vasopressin is added and the resulting light signal immediately measured in the luminometer. The IC50 values are calculated by means of the computer program GraphPad PRISM (Version 3.02).

The target in a further assay is T2, human V2 receptor (Homo sapiens, UniProt P30518).
T2 construct: expressed in transfected cells; host or cells: CHO K1 (ATCC), constitutively expressing a modified aequorin and stably co-transfected with promiscuous G-alpha-16
In words: Cellular in vitro test for determination of the vasopressin receptor activity (aequorin luminescence, CHO cells), human V2. The note with it: cell line transfected with the human V2 receptor, antagonism of [Arg8]-vasopressin, read-out: IC50 hV2. The format is cell-based.
Excerpt: as §1, §2, §3

pIC50: −log10 of the molar value.

T2 sequence (P30518 whole entry): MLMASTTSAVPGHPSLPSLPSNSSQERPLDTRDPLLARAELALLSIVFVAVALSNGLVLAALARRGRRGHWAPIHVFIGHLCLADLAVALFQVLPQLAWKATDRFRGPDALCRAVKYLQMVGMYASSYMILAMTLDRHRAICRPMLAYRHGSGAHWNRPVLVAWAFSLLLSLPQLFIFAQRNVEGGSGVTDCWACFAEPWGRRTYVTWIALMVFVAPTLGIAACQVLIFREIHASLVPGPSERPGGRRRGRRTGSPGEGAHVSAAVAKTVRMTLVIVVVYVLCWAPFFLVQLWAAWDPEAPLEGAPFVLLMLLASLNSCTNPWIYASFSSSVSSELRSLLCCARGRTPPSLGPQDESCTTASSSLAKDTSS
T1 sequence (P37288 whole entry): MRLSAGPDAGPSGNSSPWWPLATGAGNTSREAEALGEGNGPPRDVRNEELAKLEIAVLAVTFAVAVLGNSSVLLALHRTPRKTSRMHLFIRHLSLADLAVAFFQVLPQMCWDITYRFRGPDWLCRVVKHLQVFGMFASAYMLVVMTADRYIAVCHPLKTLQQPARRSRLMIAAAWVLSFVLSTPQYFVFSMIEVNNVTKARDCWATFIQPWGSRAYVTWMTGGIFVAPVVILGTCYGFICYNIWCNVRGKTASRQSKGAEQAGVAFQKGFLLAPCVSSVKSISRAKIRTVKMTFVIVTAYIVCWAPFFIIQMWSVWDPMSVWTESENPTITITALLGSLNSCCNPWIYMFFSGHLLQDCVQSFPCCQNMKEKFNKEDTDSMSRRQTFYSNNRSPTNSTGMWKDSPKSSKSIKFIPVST

The term pIC50 denotes −log10 of the IC50, conventionally taken in molar units. On to `O=C(Cn1nc(-c2ccc(Cl)cc2)n(CC(O)C(F)(F)F)c1=O)N[C@@H]1C[C@@H]1c1cccc(C(F)(F)F)c1` (mixture of isomers) [Example 357, 2-[3-(4-chlorophenyl)-5-oxo-4-(3,3,3-trifluoro-2-hydroxypropyl)-4,5-dihydro-1H-1,2,4-triazol-1-yl]-N-{(1RS,2RS)-[2-(3-trifluoromethyl-phenyl)cyclopropyl]}-acetamide], for which the results for the pIC50 at human V1a receptor and at human V2 receptor were 6.47 and 8.30, respectively.

For the compound `CC(C)(NC(=O)Cn1nc(-c2ccc(Cl)cc2)n(CC(O)C(F)(F)F)c1=O)c1cccc(C(F)(F)F)c1` (single isomer, unassigned) [Example 451, 2-[3-(4-chlorophenyl)-5-oxo-4-(3,3,3-trifluoro-2-hydroxypropyl)-4,5-dihydro-1H-1,2,4-triazol-1-yl]-N-{1-methyl-1-[3-(trifluoromethyl)phenyl]ethyl}-acetamide], the pIC50 at human V1a receptor is 7.92; on human V2 receptor, 8.70.

In the case of `CCC(O)Cn1c(-c2ccc(Cl)cc2)nn(CC(=O)NC(C)(C)c2cccc(C(F)(F)F)c2)c1=O` (single isomer, unassigned) [Example 485, 2-[3-(4-chlorophenyl)-5-oxo-4-(2-hydroxybutyl)-4,5-dihydro-1H-1,2,4-triazol-1-yl]-N-{1-methyl-1-[3-(trifluoromethyl)phenyl]ethyl}-acetamide], the figures for the negative-log IC50 (pIC50) on human V1a receptor and on human V2 receptor were 7.92 and 8.70, respectively.

For the compound `CC(C)(NC(=O)Cn1cc(-c2ccc(Cl)cc2)n(CC(O)C(F)(F)F)c1=O)c1cccc(C(F)(F)F)c1` (single isomer, unassigned) [Example 501, 2-[4-(4-chlorophenyl)-2-oxo-3-(3,3,3-trifluoro-2-hydroxypropyl)-2,3-dihydro-1H-imidazol-1-yl]-N-{1-methyl-1-[3-(trifluoromethyl)phenyl]ethyl}-acetamide], the results for the negative-log IC50 (pIC50) at human V1a receptor and at human V2 receptor were 7.92 and 8.52, respectively.

For the compound `O=C(CCn1nc(-c2ccc(Cl)cc2)n(C2CC2)c1=O)NCc1cccc(C(F)(F)F)c1` [Example 25], the values for the pIC50 at human V1a receptor and at human V2 receptor were 5.20 and 6.74, respectively.

As to `CC(NC(=O)Cn1nc(-c2ccc(Cl)cc2)n(C2CC2)c1=O)c1ccccc1C(F)(F)F` (centres unmarked) [Example 28], the negative-log IC50 (pIC50) is 7.52 at human V1a receptor and 6.74 at human V2 receptor.

As for `COc1ccc(Cn2c(-c3ccc(Cl)cc3)nn(CC(=O)NC(C)(C)c3cccc(C(F)(F)F)c3)c2=O)cc1` [Example 29], the values for the pIC50 at human V1a receptor and on human V2 receptor were 6.77 and 8.05, respectively.

In the case of `O=C(Cn1nc(-c2ccc(Cl)cc2)n(CC2CCCCC2)c1=O)NCc1cccc(C(F)(F)F)c1` [Example 59], the pIC50 at human V1a receptor is 5.96; at human V2 receptor, 8.05.

As to `CC(C)Cn1c(-c2ccc(Cl)s2)nn(CC(=O)NCc2ccccc2C(F)(F)F)c1=O` [Example 63], the pIC50 at human V1a receptor is 7.42; on human V2 receptor, under 5.00.

For the compound `CC(C)(NC(=O)Cn1nc(-c2ccc(Cl)cc2)n(C2CC2)c1=O)c1cccc(C(F)(F)F)c1` [Example 75, 2-[3-(4-chlorophenyl)-4-cyclopropyl-5-oxo-4,5-dihydro-1H-1,2,4-triazol-1-yl]-N-{1-methyl-1-[3-(trifluoromethyl)phenyl]ethyl}acetamide], the figures for the pIC50 at human V1a receptor and on human V2 receptor were 6.41 and 7.59, respectively.

As to `CC(C)Cn1c(-c2ccc(Cl)s2)nn(CC(=O)NC(C)(C)c2cccc(C(F)(F)F)c2)c1=O` [Example 84], the negative logarithm of the IC50 (pIC50) at human V1a receptor was 6.49; on human V2 receptor, 8.10.

Turning to `CCn1c(-c2ccc(Cl)cc2)nn(CC(=O)NCc2ccccc2C(F)(F)F)c1=O` [Example 101], the pIC50 on human V1a receptor is 7.03; at human V2 receptor, 5.96.

In the case of `O=C(Cn1nc(-c2ccc(Cl)cc2)n(Cc2ccc(F)cc2)c1=O)NCc1cccc(C(F)(F)F)c1` [Example 143], the pIC50 at human V1a receptor was 6.02; at human V2 receptor, 8.22.

Consider `O=C(Cn1nc(-c2ccc(Cl)cc2)n(Cc2ccccc2F)c1=O)NCc1cccc(C(F)(F)F)c1` [Example 145], for which the negative-log IC50 (pIC50) is 7.02 at human V1a receptor and 8.15 on human V2 receptor.

Consider `CC(C)Cn1c(-c2ccccc2-c2ccccc2)nn(CC(=O)NCc2cccc(C(F)(F)F)c2)c1=O` [Example 151], for which the negative logarithm of the IC50 (pIC50) on human V1a receptor is 5.47; on human V2 receptor, 6.03.

Take `COc1ccc(Cn2c(-c3ccc(Cl)cc3)nn(CC(=O)NCc3cccc(C(F)(F)F)c3)c2=O)cc1` [Example 153, 2-[3-(4-chlorophenyl)-4-(4-methoxyphenylmethyl)-5-oxo-4,5-dihydro-1H-1,2,4-triazol-1-yl]-N-[3-(trifluoromethyl)phenylmethyl]acetamide]: the values for the pIC50 at human V1a receptor and on human V2 receptor were 7.38 and 7.92, respectively.

As to `COc1ccccc1CCNC(=O)Cn1nc(-c2ccc(Cl)cc2)n(C2CC2)c1=O` [Example 159], the pIC50 was 6.36 at human V1a receptor and 6.38 on human V2 receptor.

Regarding `Cc1c(-c2ccc(Cl)cc2)n(C2CC2)c(=O)n1CC(=O)N[C@@H](C)c1cccc2ccccc12` [Example 207], the negative logarithm of the IC50 (pIC50) on human V1a receptor is 6.64; at human V2 receptor, 7.20.

Take `CCn1c(-c2ccc(Cl)cc2)cn(CC(=O)NC(C)c2cccc(C(F)(F)F)c2)c1=O` (centres unmarked) [Example 209]: the results for the pIC50 at human V1a receptor and on human V2 receptor were 6.85 and 6.59, respectively.

As for `CC(C(=O)NC(C)(C)c1cccc(C(F)(F)F)c1)n1cc(-c2ccc(Cl)cc2)n(C2CC2)c1=O` (centres unmarked) [Example 214], the pIC50 at human V1a receptor was 5.20; at human V2 receptor, 6.74.

For the compound `COc1cc(Cl)ccc1-c1nn(CC(=O)NC(C)(C)c2cccc(C(F)(F)F)c2)c(=O)n1Cc1ccccc1F` [Example 216, 2-[3-(4-chloro-2-methoxyphenyl)-4-(2-fluorobenzyl)-5-oxo-4,5-dihydro-1H-1,2,4-triazol-1-yl]-N-[1-methyl-1-(3-trifluoromethyl-phenyl)ethyl]-acetamide], the pIC50 on human V1a receptor is 7.14; at human V2 receptor, 8.22.

Regarding `Cc1ccc(-c2nn(CC(=O)NC(C)(C)c3cccc(C(F)(F)F)c3)c(=O)n2Cc2ccccc2F)s1` [Example 219], the results for the negative-log IC50 (pIC50) on human V1a receptor and on human V2 receptor were 7.05 and 8.05, respectively.

Take `CC(C)(NC(=O)Cn1nc(-c2ccc(F)c(F)c2)n(Cc2ccccc2F)c1=O)c1cccc(C(F)(F)F)c1` [Example 221]: the negative logarithm of the IC50 (pIC50) is 6.78 at human V1a receptor and 7.52 on human V2 receptor.

For the compound `COc1cc(Cl)ccc1-c1nn(CC(=O)NCc2ccccc2C(F)(F)F)c(=O)n1Cc1ccccc1F` [Example 227], the negative-log IC50 (pIC50) was 8.10 on human V1a receptor and 7.43 on human V2 receptor.

On to `CC(C)(NC(=O)Cn1nc(-c2ccc(Cl)cc2Cl)n(C2CC2)c1=O)c1cccc(C(F)(F)F)c1` [Example 230], for which the pIC50 on human V1a receptor was 6.11; on human V2 receptor it was 7.08.

In the case of `Cc1cc(Cl)ccc1-c1nn(CC(=O)NCCc2ccccc2C(F)(F)F)c(=O)n1Cc1ccccc1F` [Example 241], the negative-log IC50 (pIC50) on human V1a receptor was 7.12; at human V2 receptor, 6.57.

`C[C@H](NC(=O)Cn1nc(-c2ccc(Cl)s2)n(Cc2ccccc2F)c1=O)c1cccc(C(F)(F)F)c1` [Example 251]: the values for the pIC50 on human V1a receptor and on human V2 receptor were 7.43 and 7.89, respectively.

With `CC(NC(=O)Cn1nc(-c2ccc(Cl)s2)n(Cc2ccccc2F)c1=O)c1nccc2ccccc12` (centres unmarked) [Example 252], the pIC50 on human V1a receptor is 7.74; at human V2 receptor, 6.35.

For the compound `O=C(Cn1nc(-c2ccccc2O)n(Cc2cccc(F)c2)c1=O)NCCc1ccccc1C(F)(F)F` [Example 260], the negative-log IC50 (pIC50) on human V1a receptor was 7.52; at human V2 receptor, 6.81.

Regarding `COc1cc(Cl)ccc1-c1nn(CC(=O)NC(C)(C)c2cccc(C(F)(F)F)c2)c(=O)n1Cc1cccc(F)c1` [Example 262], the pIC50 on human V1a receptor was 6.80; at human V2 receptor, 8.30.

As to `CN(C)C(CNC(=O)Cn1nc(-c2ccc(Cl)cc2)n(Cc2ccccc2F)c1=O)c1ccccc1Cl` (centres unmarked) [Example 265], the pIC50 at human V1a receptor was 7.55; at human V2 receptor, 6.13.

With `O=C(Cn1nc(-c2ccc(Cl)cc2)n(Cc2ccccc2F)c1=O)NC1(Cc2ccccc2C(F)(F)F)CC1` [Example 284], the pIC50 on human V1a receptor was 8.05; on human V2 receptor, 6.72.

Consider `O=C(Cn1nc(-c2ccc(Cl)cc2)n(Cc2ccccc2F)c1=O)NCc1c(C(F)(F)F)cccc1C(F)(F)F` [Example 288], for which the negative-log IC50 (pIC50) on human V1a receptor is 6.12; at human V2 receptor it was 6.18.

As to `O=C(Cn1nc(-c2ccc(Cl)cc2)n(Cc2ccccc2F)c1=O)NCc1cccc(C(F)(F)F)c1Cl` [Example 296], the pIC50 at human V1a receptor was 7.27; at human V2 receptor, 8.05.
